Values of other authors, collected in US10351563B2, “Biaryl kinase inhibitors” (BRISTOL-MYERS SQUIBB COMPANY, priority 2014, dated 2019).

What was measured:
[1] = tested on: PC12 cells
[2] = molecular target: AAK1 (Homo sapiens (Human), UniProt Q2M2I8)
[3] = tested on: HCV; details: Huh-7.5 cells

AAK1, sequence (Q2M2I8 whole entry, species assumed): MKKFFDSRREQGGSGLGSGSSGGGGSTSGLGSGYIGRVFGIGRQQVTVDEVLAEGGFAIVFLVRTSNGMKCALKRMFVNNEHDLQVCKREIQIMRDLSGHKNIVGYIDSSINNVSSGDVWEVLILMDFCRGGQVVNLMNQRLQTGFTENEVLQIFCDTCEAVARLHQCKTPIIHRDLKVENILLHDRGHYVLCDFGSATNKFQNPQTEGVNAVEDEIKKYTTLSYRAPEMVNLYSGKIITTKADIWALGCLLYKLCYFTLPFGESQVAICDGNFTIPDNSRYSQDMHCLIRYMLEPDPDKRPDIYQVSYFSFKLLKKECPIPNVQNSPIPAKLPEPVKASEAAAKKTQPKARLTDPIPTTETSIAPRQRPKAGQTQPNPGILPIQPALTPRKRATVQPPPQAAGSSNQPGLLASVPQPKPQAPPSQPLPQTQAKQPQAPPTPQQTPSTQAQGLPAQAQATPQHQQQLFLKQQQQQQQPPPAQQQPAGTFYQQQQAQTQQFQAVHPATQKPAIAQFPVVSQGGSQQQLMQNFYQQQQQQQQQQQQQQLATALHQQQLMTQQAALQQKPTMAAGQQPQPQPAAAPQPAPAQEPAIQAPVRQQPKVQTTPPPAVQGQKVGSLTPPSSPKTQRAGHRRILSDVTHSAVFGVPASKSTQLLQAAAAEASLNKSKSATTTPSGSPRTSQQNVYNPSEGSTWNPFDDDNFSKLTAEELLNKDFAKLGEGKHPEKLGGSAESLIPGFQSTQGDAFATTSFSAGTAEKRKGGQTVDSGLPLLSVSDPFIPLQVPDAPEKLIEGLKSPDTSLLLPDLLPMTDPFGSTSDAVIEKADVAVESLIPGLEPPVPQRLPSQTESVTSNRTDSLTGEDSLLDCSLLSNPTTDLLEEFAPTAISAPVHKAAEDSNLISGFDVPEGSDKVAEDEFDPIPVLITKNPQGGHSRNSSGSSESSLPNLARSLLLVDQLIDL

Compound	Neuregulin-1 induced neurite outgrowth [1]	AAK1 kinase activity inhibition [2]	HCV entry [3]	HCV virion assembly [3]
COC(=O)[C@@]1(O)C[C@H]2O[C@]1(C)n1c3ccccc3c3c4c(c5c6ccccc6n2c5c31)C(=O)NC4 [Example K252a, K252a]	potentiation of Neuregulin-1 induced neurite outgrowth	inhibits AAK1 kinase activity		
CCN(CC)CCNC(=O)c1c(C)[nH]c(/C=C2\C(=O)Nc3ccc(F)cc32)c1C [sunitinib]		potent AAK1 inhibitor	inhibit HCV entry	reduced HCV virion assembly
